By IC50 is commonly meant the concentration at which inhibition is half-maximal.

Experiment [1] in a line: Inhibition of mouse Hepa-1c1c7 cells by MTT assay. The format is cell-based. A general note: Formazan colour is commonly taken as a measure of viable cells.
Experiment [2] is described as follows: Inhibition of 7,12-dimethylbenz[a]anthracene-induced preneoplastic lesions in a mouse mammary gland culture at 10 ug/mL. Type of experiment: functional.
The nature of experiment [3]: Chemoprevention index, ratio of IC50 for mouse Hepa-1c1c7 cells to drug level required to double NADPH:quinone reductase activity in mouse Hepa-1c1c7 cells. Type of experiment: functional.
Another experiment in a line: tissue or blood. The conditions noted are these: Mus musculus, Mammary gland, read-out: INH.

Description for tissue or blood: Inhibition of 7,12-dimethylbenz[a]anthracene-induced preneoplastic lesions in a mouse mammary gland culture at 1 ug/mL

For `COc1cc2c(cc1OC)[C@]1(O)C(=O)c3c(O)cc4c(c3O[C@@H]1CO2)C=CC(C)(C)O4`, in experiment [1], the IC50 was greater than 47 µM. Moreover, in experiment [2], the inhibition at 10 µg/mL came out at 60%.
In experiment [1], `C[S+]([O-])CCCCN=C=S` (stereo not drawn) [SULFORAPHANE] yielded a 50% inhibitory concentration (IC50) of 11 µM. Moreover, the Ratio in experiment [3] is given as 25. Also, the inhibition at 1 µg/mL in “tissue or blood” stood at 83.7%.
The compound `COc1cc2c(cc1OC)[C@]1(O)C(=O)c3c(O)cc4c(c3O[C@@H]1CO2)C(OC)C(O)C(C)(C)O4` (stereo partly drawn) displayed an IC50 in experiment [1] of 9.1 µM. Also, the Ratio in experiment [3] is given as 1.4.
For the compound `C=C(C)[C@H]1Cc2c(cc(O)c3c2O[C@@H]2COc4cc(OC)c(OC)cc4[C@@H]2C3=O)O1` [SUMATROL], in experiment [1], the IC50 was greater than 47 µM. The inhibition at 10 µg/mL in experiment [2] was determined as 49.9%.
Take `COc1cc2c(cc1OC)[C@@H]1C(=O)c3c(O)cc4c(c3O[C@@H]1CO2)C=CC(C)(C)O4` [TOXICAROL]: the IC50 in experiment [1] was greater than 47 µM. Further, in experiment [2], the inhibition at 10 µg/mL was found to be 80%.
Turning to `COc1cc(-c2cc(=O)c3c(O)cc(O)cc3o2)ccc1O` [CHRYSOERIOL], the IC50 in experiment [1] amounted to 36 µM. The Ratio in experiment [3] turned out to be 3.1.
The corresponding values for `O=c1c(-c2ccc(O)cc2)coc2cc(O)cc(O)c12` [GENISTEIN] are 45.2 µM and 2.
On to `O=C(/C=C/c1ccc(O)cc1)c1ccc(O)cc1O` [ISOLIQUIRITIGENIN], for which the half-inhibitory concentration (IC50) in experiment [1] was 36.3 µM. In addition, the inhibition at 10 µg/mL in experiment [2] was determined as 76%. In addition, in experiment [3], the Ratio is given as 10.1.
The corresponding values for `COc1cc(O)c2c(c1/C=C/C(C)=O)O[C@H](c1ccccc1)CC2=O` are greater than 14.9 µM, 0% and greater than 1.4.
For the compound `COc1cc2c(cc1OC)-c1c(oc3c4c(cc(O)c3c1=O)OC(C)(C)C=C4)CO2`, the half-maximal inhibitory concentration (IC50) in experiment [1] was greater than 47 µM. In experiment [2], this compound returned an inhibition at 10 µg/mL of 19%.

Values taken from ChEMBL document CHEMBL1146589, “Potential cncer chemopreventive flavonoids from the stems of Tephrosia toxicaria” (J Nat Prod, 2003).
